From patent publication US20250320234A1, “LONP1 INHIBITOR COMPOUNDS, USES AND METHODS” (Pretzel Therapeutics, Inc., priority 2021, published 2025)

What follows are compounds tested against LONP1 (NM_004793.4) (Homo sapiens (Human), UniProt P36776) (assay: LONP1 FRET-based protease activity assay with fluorogenic peptide substrate). Details: LONP1 15 nM, substrate 3 μM, 1 hour at 37° C.; average of a minimum of two repeats.
Format: biochemical
Method: The inhibitory activity of the compounds of the present invention against LONP1, 20S proteasome and other proteases are determined by assays known to persons of ordinary skill in the art (see, e.g., Fishovitz, J. et al. “Active-Site-Directed Chemical Tools for Profiling Mitochondrial Lon Protease” ACS Chem. Biol. 6, 781-788 (2011)).
In this Example, LONP1 (NM_004793.4) activity was measured by a FRET-based assay for protease activity using a fluorogenic peptide DabcylYRGIT(2Abu)SORQK(5-FAM) (Cambridge Research Biochemicals) as substrate. LONP1 activity is followed by an increase in fluorescence signal due to the degradation of the peptide. Inhibition of LONP1 protease activity by an inhibitor compound of the disclosure elicits a decrease in the fluorescent signal.
The assay is performed in a 384-well plate (Greiner, cat. #781076) using the following reagents and conditions: substrate (3 μM) was incubated for 1 hour at 37° C. in the presence of LONP1 (15 nM as monomer), 25 mM Tris pH 8.0, 10 mM MgCl2, 0.03 mg/mL […], 0.5 mM DTT, 0.0003% Tween-20, 10 mM NaCl, 0.06 mM ATP and 0.5 mM EGTA in a 15 μL final volume. The LONP1-containing mix (10 μL) was incubated with the test compound for 15 min at 37° C. before adding the peptide-containing mix (5 μL). Solutions were dispensed using a small cassette-Multidrop Combi (Thermo Scientific). Fluorescence was measured using a PheraStar plate reader (BMG Labtech) FI-FRET EX 485 nm Em 520 nm.
Each value is based on an average of a minimum of two repeats.

LONP1 (NM_004793.4), sequence (P36776 68-959): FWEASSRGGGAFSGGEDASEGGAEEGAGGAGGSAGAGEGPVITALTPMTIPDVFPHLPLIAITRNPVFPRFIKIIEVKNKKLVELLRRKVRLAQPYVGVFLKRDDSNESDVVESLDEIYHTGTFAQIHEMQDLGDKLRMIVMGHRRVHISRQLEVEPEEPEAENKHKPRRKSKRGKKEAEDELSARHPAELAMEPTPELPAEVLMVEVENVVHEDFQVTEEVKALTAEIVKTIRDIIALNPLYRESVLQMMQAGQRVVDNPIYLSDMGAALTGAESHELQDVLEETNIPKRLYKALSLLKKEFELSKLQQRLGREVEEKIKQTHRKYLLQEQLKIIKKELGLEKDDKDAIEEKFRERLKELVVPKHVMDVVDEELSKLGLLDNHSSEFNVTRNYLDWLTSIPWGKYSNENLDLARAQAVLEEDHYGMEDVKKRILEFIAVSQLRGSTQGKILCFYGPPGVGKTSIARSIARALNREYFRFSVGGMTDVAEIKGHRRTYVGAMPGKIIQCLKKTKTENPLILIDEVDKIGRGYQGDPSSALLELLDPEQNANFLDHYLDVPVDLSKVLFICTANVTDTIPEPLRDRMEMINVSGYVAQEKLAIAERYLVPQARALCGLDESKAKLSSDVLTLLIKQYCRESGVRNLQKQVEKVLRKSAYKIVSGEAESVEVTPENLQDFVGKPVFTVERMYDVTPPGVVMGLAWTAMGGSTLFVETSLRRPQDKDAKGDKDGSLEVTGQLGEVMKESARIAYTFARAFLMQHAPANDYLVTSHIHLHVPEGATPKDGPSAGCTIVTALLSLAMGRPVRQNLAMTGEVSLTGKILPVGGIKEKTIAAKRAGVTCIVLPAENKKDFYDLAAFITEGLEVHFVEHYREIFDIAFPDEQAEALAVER

SMILES	IC50 [nM]
COC[C@@H](NC(=O)c1cnccn1)C(=O)N[C@@H](CC(C)C)B(O)O [Compound 38, ((R)-1-((R)-3-methoxy-2-(pyrazine-2-carboxamido)propanamido)-3-methylbutyl)boronic acid]	50 to 500
CO[C@@H](C)[C@@H](NC(=O)c1cnccn1)C(=O)N[C@@H](CCOc1ccccc1)B(O)O [Compound 30, ((R)-1-((2R,3S)-3-methoxy-2-(pyrazine-2-carboxamido)butanamido)-3-phenoxypropyl)boronic acid]	50 to 500
COC[C@@H](NC(=O)c1cnccn1)C(=O)N[C@@H](CC1CC1)B(O)O [Compound 18, ((R)-2-cyclopropyl-1-((R)-3-methoxy-2-(pyrazine-2-carboxamido)propanamido)ethyl)boronic acid]	50 to 500
COC[C@@H](NC(=O)c1cnccn1)C(=O)N[C@@H](CCC(=O)c1ccccc1)B(O)O [Compound 53, ((R)-1-((R)-3-methoxy-2-(pyrazine-2-carboxamido)propanamido)-4-oxo-4-phenylbutyl)boronic acid]	500 to 5000
COC[C@@H](NC(=O)c1cnccn1)C(=O)N[C@@H](CCCc1ccc(O)cc1)B(O)O [Compound 40, ((R)-4-(4-hydroxyphenyl)-1-((R)-3-methoxy-2-(pyrazine-2-carboxamido)propanamido)butyl)boronic acid]	500 to 5000
COC[C@@H](NC(=O)c1cnccn1)C(=O)N[C@@H](COCc1ccccc1)B(O)O [Compound 2, ((R)-2-(benzyloxy)-1-((R)-3-methoxy-2-(pyrazine-2-carboxamido)propanamido)ethyl)boronic acid]	50 to 500
COC[C@@H](NC(=O)c1cnccn1)C(=O)N[C@@H](CCOc1ccc(Cl)cc1C)B(O)O [Compound 27, ((R)-3-(4-chloro-2-methylphenoxy)-1-((R)-3-methoxy-2-(pyrazine-2-carboxamido)propanamido)propyl)boronic acid]	50 to 500
COC[C@@H](NC(=O)[C@H]1CCC(=O)N1)C(=O)N[C@@H](CCCc1ccccc1)B(O)O [Compound 8, ((R)-1-((R)-3-methoxy-2-((R)-5-oxopyrrolidine-2-carboxamido)propanamido)-4-phenylbutyl)boronic acid]	50 to 500
COC[C@@H](NC(=O)c1cnccn1)C(=O)N[C@@H](CCCc1cccc(Cl)c1)B(O)O [Compound 15, ((R)-4-(3-chlorophenyl)-1-((R)-3-methoxy-2-(pyrazine-2-carboxamido)propanamido)butyl)boronic acid]	50 to 500
COC[C@H](C(=O)N[C@@H](CCCc1ccccc1)B(O)O)N1C(=O)c2ccccc2C1=O [Compound 16, ((R)-1-((R)-2-(1,3-dioxoisoindolin-2-yl)-3-methoxypropanamido)-4-phenylbutyl)boronic acid]	50 to 500
COC[C@@H](NC(=O)[C@H]1CCCCO1)C(=O)N[C@@H](CCCc1ccccc1)B(O)O [Compound 41, ((R)-1-((R)-3-methoxy-2-((R)-tetrahydro-2H-pyran-2-carboxamido)propanamido)-4-phenylbutyl)boronic acid]	50 to 500
COC[C@@H](NC(=O)c1cnccn1)C(=O)N[C@@H](CCCc1cccc(OC)c1)B(O)O [Compound 17, ((R)-1-((R)-3-methoxy-2-(pyrazine-2-carboxamido)propanamido)-4-(3-methoxyphenyl)butyl)boronic acid]	50 to 500
O=C(N[C@H](CO)C(=O)N[C@@H](CCCc1ccc(O)cc1)B(O)O)c1cnccn1 [Compound 39, ((R)-1-((R)-3-hydroxy-2-(pyrazine-2-carboxamido)propanamido)-4-(4-hydroxyphenyl)butyl)boronic acid]	500 to 5000
COC[C@@H](NC(=O)c1cnccn1)C(=O)N[C@H](CCOc1ccc(Cl)c(F)c1)B(O)O [Compound 26, ((S)-3-(4-chloro-3-fluorophenoxy)-1-((R)-3-methoxy-2-(pyrazine-2-carboxamido)propanamido)propyl)boronic acid]	500 to 5000
COC[C@H](C(=O)N[C@@H](CCCc1ccccc1)B(O)O)N1C(=O)CCC1=O [Compound 19, ((R)-1-((R)-2-(2,5-dioxopyrrolidin-1-yl)-3-methoxypropanamido)-4-phenylbutyl)boronic acid]	500 to 5000
COC[C@@H](NC(=O)c1cnccn1)C(=O)N[C@H](CCOc1ccc(Cl)cc1F)B(O)O [Compound 29, ((S)-3-(4-chloro-2-fluorophenoxy)-1-((R)-3-methoxy-2-(pyrazine-2-carboxamido)propanamido)propyl)boronic acid]	500 to 5000
